Source: patent publication US20050112198A1, “Bupropion formulation for sustained delivery” (priority 2003, published 2005)

What was measured:
[1] = In-house drug-excipient compatibility / storage stability of bupropion hydrochloride; type: physicochemical; conditions: for degradation of active drug in drug-excipient mixtures: 50° C./75% RH and 40° C./75% RH
Method: In order to study the compatibility of various excipients used in the proposed invention with bupropion hydrochloride, various drug-excipient mixtures were prepared. The each excipient amount relative to drug varied from 1:1 to 1:10. […] As predicted with the active drug, it has been observed during their analysis at various time intervals by liquid chromatography that most of the excipients studied are causing degradation of the active drug with a result of two distinct degradation peaks, in which all cellulose based excipients considered to be interacting uniquely with the pure drug compared to non-cellulose based excipients. […] The above changes were more pronounced in samples studied under open conditions compared to closed condition samples. […] Such degradation could be due to impurities like peroxide, heavy metals and bleaching agents present in such materials. Even though such impurities are present within acceptable limits, the moisture content carried in them should have acted as solvent to aggravate such reactions. […] The package component seems to play a vital role for stabilizing the dosage form: high-density polyethylene (HDPE) containers with additional thickness/weight are preferred apart from maintaining sufficient quantity of adsorbent added to the packaging system to minimize moisture and oxygen/odor levels.

[2] = crystalline solid; cited from earlier work

CC(NC(C)(C)C)C(=O)c1cccc(Cl)c1.Cl (racemic) [Bupropion hydrochloride, (±)-1-(3-chlorophenyl)-2-[(1,1-dimethylethyl)amino]-1-propanone hydrochloride]
stability of the salt form alone ([1]; in-house studies, normal storage conditions, without excipients): stable in normal storage conditions | degradation of active drug in drug-excipient mixtures ([1]; mixtures with Kollidon VA64, Kollidon SR, methylcellulose, colloidal silicon dioxide, magnesium stearate, enteric coating materials): minimum amount or no change | degradation of active drug in drug-excipient mixtures ([1]; mixtures with hydroxypropyl cellulose, polyethylene oxide and sodium carboxymethyl cellulose, 1:1 to 1:10, liquid chromatography): rapid degradation | water solubility [2]: water soluble
